{"source": "patent US20220023317A1", "about": "“PREVENTING OR MITIGATING CHEMOTHERAPY INDUCED ALOPECIA USING VITAMIN D” (Berg LLC, priority 2013, published 2022)", "assay": "Quantification of calcitriol in ex vivo porcine skin layers", "set-up": "species or system minipig", "description": "The skin sections were weighed and the weight recorded.", "key": {"[1]": {"conditions": "Female Minipigs, 10 μg/mL, mean ± SD"}, "[2]": {"conditions": "Female Minipigs, 30 μg/mL, mean ± SD"}, "[3]": {"conditions": "Male Minipig (1 animal), 100 μg/mL, mean ± SD"}, "[4]": {"conditions": "Male Minipigs, 3 μg/mL, mean ± SD"}, "[5]": {"conditions": "Male Minipigs, 10 μg/mL, mean ± SD"}, "[6]": {"conditions": "Male Minipigs, 30 μg/mL, mean ± SD"}}, "data": [{"molecule": "C=C1/C(=C\\C=C2/CCC[C@]3(C)[C@@H]([C@H](C)CCCC(C)(C)O)CC[C@@H]23)C[C@@H](O)C[C@@H]1O", "note": "[Calcitriol, (1a.3B.5Z.7E)-9,10-secocholesta-5,7,10(19)-triene-1,3,25-triol]", "values": [{"measurement": "Stratum Corneum calcitriol recovered", "setting": "Female Minipigs, 1 μg/mL, mean ± SD", "result": "0.76 ± 1.3 (3) ng/cm^2"}, {"measurement": "Dermis calcitriol recovered", "setting": "Female Minipigs, 1 μg/mL, zero = below Lower Limit of Detection", "result": "0 ± 0 (3) ng/mg"}, {"measurement": "Stratum Corneum calcitriol recovered", "setting": "Female Minipigs, 3 μg/mL, mean ± SD", "result": "1.12 ± 1.49 (3) ng/cm^2"}, {"measurement": "Dermis calcitriol recovered", "setting": "Female Minipigs, 3 μg/mL, zero = below Lower Limit of Detection", "result": "0 ± 0 (3) ng/mg"}, {"measurement": "Epidermis calcitriol recovered", "setting": "[1]", "result": "0.02 ± 0.04 (3) ng/mg"}, {"measurement": "Stratum Corneum calcitriol recovered", "setting": "[1]", "result": "1.65 ± 1.80 (3) ng/cm^2"}, {"measurement": "Dermis calcitriol recovered", "setting": "Female Minipigs, 10 μg/mL, zero = below Lower Limit of Detection", "result": "0.0 ± 0.0 (3) ng/mg"}, {"measurement": "Epidermis calcitriol recovered", "setting": "[2]", "result": "0.34 ± 0.24 (3) ng/mg"}, {"measurement": "Stratum Corneum calcitriol recovered", "setting": "[2]", "result": "20.2 ± 11.7 (3) ng/cm^2"}, {"measurement": "Dermis calcitriol recovered", "setting": "Female Minipigs, 30 μg/mL, zero = below Lower Limit of Detection", "result": "0.0 ± 0.0 (3) ng/mg"}, {"measurement": "Dermis calcitriol recovered", "setting": "[3]", "result": "0.13 ± 0.04 (1) ng/mg"}, {"measurement": "Epidermis calcitriol recovered", "setting": "[3]", "result": "2.09 ± 1.0 (1) ng/mg"}, {"measurement": "Stratum Corneum calcitriol recovered", "setting": "[3]", "result": "118.1 ± 11.4 (1) ng/cm^2"}, {"measurement": "Epidermis calcitriol recovered", "setting": "Male Minipigs, 1 μg/mL, mean ± SD", "result": "0.16 ± 0.28 (3) ng/mg"}, {"measurement": "Stratum Corneum calcitriol recovered", "setting": "Male Minipigs, 1 μg/mL, twice daily 7 days, mean ± SD", "result": "56.1 ± 17.4 (3) ng/cm^2"}, {"measurement": "Dermis calcitriol recovered", "setting": "Male Minipigs, 1 μg/mL, zero = below Lower Limit of Detection", "result": "0.0 ± 0.0 (3) ng/mg"}, {"measurement": "Epidermis calcitriol recovered", "setting": "[4]", "result": "0.14 ± 0.23 (3) ng/mg"}, {"measurement": "Stratum Corneum calcitriol recovered", "setting": "[4]", "result": "62.4 ± 7.91 (3) ng/cm^2"}, {"measurement": "Dermis calcitriol recovered", "setting": "Male Minipigs, 3 μg/mL, zero = below Lower Limit of Detection", "result": "0.0 ± 0.0 (3) ng/mg"}, {"measurement": "Epidermis calcitriol recovered", "setting": "[5]", "result": "0.23 ± 0.20 (3) ng/mg"}, {"measurement": "Stratum Corneum calcitriol recovered", "setting": "[5]", "result": "59.6 ± 14.1 (3) ng/cm^2"}, {"measurement": "Dermis calcitriol recovered", "setting": "Male Minipigs, 10 μg/mL, zero = below Lower Limit of Detection", "result": "0.0 ± 0.0 (3) ng/mg"}, {"measurement": "Epidermis calcitriol recovered", "setting": "[6]", "result": "0.38 ± 0.33 (3) ng/mg"}, {"measurement": "Stratum Corneum calcitriol recovered", "setting": "[6]", "result": "54.6 ± 32.5 (3) ng/cm^2"}, {"measurement": "Dermis calcitriol recovered", "setting": "Male Minipigs, 30 μg/mL, zero = below Lower Limit of Detection", "result": "0.0 ± 0.0 (3) ng/mg"}]}]}
